Laboratory results as given in US11382949B2, “Anthelmintic depsipeptide compounds” (BOEHRINGER INGELHEIM ANIMAL HEALTH USA INC., priority 2016, dated 2022).

Test system: Microfilaria of Dirofilaria immitis
Experiment: Method A: screening of compounds against microfilaria of Dirofilaria immitis (microtitre plate, survival at 72 hours)
Assay type: cell-based
Settings: read-out: mean EC50 values

For `C[C@H]1OC(=O)[C@H](CC(C)(C)C)N(C)C(=O)[C@@H](Cc2ccc(SC(F)(F)F)cc2)OC(=O)[C@H](CC(C)(C)F)N(C)C(=O)[C@@H](C)OC(=O)[C@H](CC(C)(C)C)N(C)C(=O)[C@@H](Cc2ccc(SC(F)(F)F)cc2)OC(=O)[C@H](CC(C)(C)F)N(C)C1=O` [44-46/1-4, (3S,6R,9S,12R,15S,18R,21S,24R)-3,15-bis(2-fluoro-2-methylpropyl)-4,6,10,16,18,22-hexamethyl-9,21-dineopentyl-12,24-bis(4-(trifluoromethylthio)benzyl)-1,7,13,19-tetraoxa-4,10,16,22-tetraazacyclotetracosan-2,5,8,11,14,17,20,23-octaone], the EC50 was under 1000 nM.
